Structures can show the parent of a compound that is named as a salt. Where two headings read alike, the source gives them in different places.
How the values were obtained:
human TRPA1 = target: T1, human TRPA1 (Homo sapiens, UniProt O75762, K186N/R3C/R58T); test: Intracellular calcium (Fluo-4, FLIPR) activation of TRPA1 cells by GRAS compounds; format: cell-based; settings: relative to AITC 30 μM; for activation at 1000 µM / A1 activation, % of agonist value: 1 mM; for activation at 1000 µM / activation at 100 µM: read-out: A1 activation, % of agonist value;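 as to all read-outs here: TRPA1-expressing cells, fluorescence read on a FLIPR Tetra (ex 488 nm, em 514 nm) every 2 s for 10 min after compound addition, baseline subtracted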
T1 construct: expressed in transfected cells; pcDNA3 control cells

TRPA1V1 = test: Intracellular calcium (Fluo-4, FLIPR) activation of TRPA1V1 cells (co-expressing TRPA1 and TRPV1) by GRAS compounds; format: cell-based, human; settings: relative to AITC 30 μM;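 also: HEK293 cells co-expressing TRPA1 and TRPV1, fluorescence read at 488/514 nm after baseline subtraction, recorded every 2 s over 10 min, ionomycin 10 µM and buffer as controls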
Method: TRPV1, TRPA1, TRPA1V1 and pcDNA3 cells were grown in 15 mL growth medium [high glucose DMEM (Dulbecco's modification of Eagle's medium) supplemented with 10% FBS (fetal bovine serum), 100 μg/mL penicillin/streptomycin, 100 μg/mL G418] in a 75 cm^2 flask for 3 days in a mammalian cell culture incubator at 33° C. and 5% CO2. TRP Cells were detached with 8 mL of PBS (without calcium or magnesium); for pcDNA3 cells, trypsin was used for releasing the cells. The detached cells were spun at low speed (800-900 rpm for 3 min) to pellet the cells. […] The cells were washed once with 45 mL assay buffer (1×HBSS, 20 mM HEPES) by low speed centrifugation (800-900 rpm for 3 min) and resuspended in 11 mL of the assay buffer in a reagent reservoir. […] The plates were set at room temperature for 30 min. The plates were read in a FLIPR^TETRA instrument (Molecular Devices, Sunnyvale, Calif.) at λex 488 nm and λem 514 nm to record baseline fluorescence following which 20 μL of test material at 1 mM or 100 μM final concentration for pure compounds in a GRAS library or 0.004% for extracts. For agonists, capsaicin 350 nM and AITC at 30 μM; and for controls, ionomycin 10 μM and buffer alone) was added to each well using the dispenser provided in the FLIPR. The data point was recorded every 2 seconds for a total of 10 min.
Average value for activation from three independent assay plates are presented as % of agonist value (AITC, 30 μM for TRPA1 and capsaicin, 350 nM for TRPV1. For TRPA1V1, we used AITC, 30 μM or capsaicin, 350 nM depending on if the compound is an A1 agonist or a V1 agonist. For compounds that activated both A1 and V1, we used AITC for normalization). Variation among triplicates was within 10% of each other. Assayed at 1 mM for pure compounds and 0.004% for extracts.

T1 sequence (O75762 whole entry R3C/R58T/K186N): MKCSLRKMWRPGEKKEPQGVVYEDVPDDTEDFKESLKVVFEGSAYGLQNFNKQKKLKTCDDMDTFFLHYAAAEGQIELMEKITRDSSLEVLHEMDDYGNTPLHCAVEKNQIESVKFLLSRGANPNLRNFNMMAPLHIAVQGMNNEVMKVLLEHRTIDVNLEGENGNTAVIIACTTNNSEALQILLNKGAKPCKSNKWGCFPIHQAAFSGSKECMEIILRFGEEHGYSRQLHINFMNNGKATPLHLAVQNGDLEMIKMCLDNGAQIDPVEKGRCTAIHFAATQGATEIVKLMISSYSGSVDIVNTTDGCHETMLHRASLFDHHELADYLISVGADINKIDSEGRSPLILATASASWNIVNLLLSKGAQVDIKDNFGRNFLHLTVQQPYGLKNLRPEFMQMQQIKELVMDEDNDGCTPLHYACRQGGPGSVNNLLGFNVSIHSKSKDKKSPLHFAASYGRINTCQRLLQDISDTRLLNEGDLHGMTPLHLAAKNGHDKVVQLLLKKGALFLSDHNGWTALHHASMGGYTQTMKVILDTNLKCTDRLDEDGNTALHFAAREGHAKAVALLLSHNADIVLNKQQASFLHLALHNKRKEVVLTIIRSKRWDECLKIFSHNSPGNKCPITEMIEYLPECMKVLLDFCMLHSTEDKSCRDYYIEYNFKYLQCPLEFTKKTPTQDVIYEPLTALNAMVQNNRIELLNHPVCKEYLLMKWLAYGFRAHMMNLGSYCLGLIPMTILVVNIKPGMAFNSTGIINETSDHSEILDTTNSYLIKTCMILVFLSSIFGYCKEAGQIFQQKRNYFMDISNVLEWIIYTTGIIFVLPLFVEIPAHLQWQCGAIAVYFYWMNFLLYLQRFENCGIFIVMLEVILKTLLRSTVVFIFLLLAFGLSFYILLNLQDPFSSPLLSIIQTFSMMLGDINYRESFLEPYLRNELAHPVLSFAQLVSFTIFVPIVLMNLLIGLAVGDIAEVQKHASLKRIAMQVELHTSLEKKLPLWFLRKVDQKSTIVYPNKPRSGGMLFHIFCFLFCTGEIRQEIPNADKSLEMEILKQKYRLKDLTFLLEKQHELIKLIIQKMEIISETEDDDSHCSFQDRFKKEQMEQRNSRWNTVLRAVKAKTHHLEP

Compound	activation at 1000 µM (human TRPA1; Table 1(c))	A1V1 activation, % of agonist value (TRPA1V1; Table 1(c), 1 mM)	A1 activation, % of agonist value (human TRPA1; Table 1(c))	also measured
CC1=C(/C=C/C(C)=C/C=C/C(C)=C/CO)C(C)(C)CCC1 [Retinol]	80%	67.79%		
C=C(C)CCC[C@H](C)CCO [Rhodinol]				activation at 1000 µM (human TRPA1; Table 1(d)): 116%; A1V1 activation, % of agonist value (TRPA1V1; Table 1(d), 1 mM): 78.75%
C=C(C)CCCC(C)CCOC(C)=O (centres unmarked) [Rhodinyl acetate]		89.69%	89.06%	
C=C(C)CCC[C@H](C)CCOC(=O)CC(C)C [Rhodinyl isovalerate]		48.29%	54.92%	
C=C(C)CCC[C@H](C)CCOC(=O)CC [Rhodinyl propionate]		86.44%	75.56%	
CC1=C(C=O)C(C)(C)CC=C1 [Safranal]		74.5%	73%	
O=Cc1ccccc1O [Salicylaldehyde]	66.9%	65.6%		
Cc1c[nH]c2ccccc12 [Skatole]	116%	102.9%		activation at 100 µM (human TRPA1; Table 1(c)): 66.2%; A1V1 activation, % of agonist value (TRPA1V1; Table 1(c), 100 μM (*)): 71.4%
OC[C@H]1O[C@@](CO)(O[C@H]2O[C@H](CO)[C@@H](O)[C@H](O)[C@H]2O)[C@@H](O)[C@@H]1O [Sucrose]	84.1%	80.86%		
CC1=CCCC(C)(C)C12CCC(C)O2 (centres unmarked) [Theaspirane]		84%	99%	
CC/C=C/C=O [Trans-2-Pentenal]	80.9%	68.62%		
CCCCCCCCC/C=C/C=O [Trans-2-dodecenal]				activation at 100 µM (human TRPA1; Table 1(c)): 79.1%; A1V1 activation, % of agonist value (TRPA1V1; Table 1(c), 100 μM (*)): 66%
COc1ccc(/C=C/C=O)cc1 [Trans-p-methoxy cinnamaldehyde]				activation at 1000 µM (human TRPA1; Table 1(e)): 58.8%; A1V1 activation, % of agonist value (TRPA1V1; Table 1(e), 1 mM): 75.99%
CC1=CC(C)C(C=O)CC1 (centres unmarked) [Trivertal]		36.46%	35.43%	
C=C(C)[C@@H]1CCC2=CCC[C@@H](C)[C@]2(C)C1 [Valencene]		66.32%	61.97%	
COc1ccc(C=O)cc1OC [Veratraldehyde]	73.8%	69.76%		
CCCCCC(C=O)=Cc1ccccc1 [alpha-Amylcinnamaldehyde]	86.6%	82.7%		

Compound	activation at 1000 µM (human TRPA1; Table 1(c))	A1V1 activation, % of agonist value (TRPA1V1; Table 1(c), 1 mM)	A1 activation, % of agonist value (human TRPA1; Table 1(c))	also measured
CC1=CCC(C(C)(C)OC=O)CC1 (stereo not drawn) [alpha-Terpinyl formate]		71%	82.2%	
C=C1CC/C=C(\C)CC[C@@H]2[C@@H]1CC2(C)C [beta-Caryophyllene]				activation at 1000 µM (human TRPA1; Table 1(d)): 134%; A1V1 activation, % of agonist value (TRPA1V1; Table 1(d), 1 mM): 103.8%
C=CC(C)=CCC=C(C)C [beta-Ocimene]	112%	92%		
CC/C=C\CCOC(=O)C/C=C\CC [cis-3-Hexenyl cis-3-hexenoate]	107%	97.4%		
CC/C=C\CCOC(=O)CC(C)C [cis-3-Hexenyl isovalerate]				activation at 1000 µM (human TRPA1; Table 1(d)): 71.7%; A1V1 activation, % of agonist value (TRPA1V1; Table 1(d), 1 mM): 51.6%
CC/C=C\CCCCC=O [cis-6-Nonenal]	108%	93%		
C=CC(O)CCCCCCC (centres unmarked) [dec-1-en-3-ol]				activation at 1000 µM (human TRPA1; Table 1(d)): 90%; A1V1 activation, % of agonist value (TRPA1V1; Table 1(d), 1 mM): 69.5%
Cc1ccc(O)cc1 [p-Cresol]				activation at 1000 µM (human TRPA1; Table 1(d)): 61%; A1V1 activation, % of agonist value (TRPA1V1; Table 1(d), 1 mM): 38.52%
CC(=O)c1ccc(O)cc1 [p-Hydroxyacetophenone]	52.8%	49.38%		
C=C(C)C1CCC(C)C(=O)C1 (centres unmarked) [p-Menth-8-en-2-one]				activation at 1000 µM (human TRPA1; Table 1(e)): 39.9%; A1V1 activation, % of agonist value (TRPA1V1; Table 1(e), 1 mM): 59.5%
CCCC(=O)OCc1ccc(OC)cc1 [p-Methoxybenzyl butyrate]				activation at 1000 µM (human TRPA1; Table 1(e)): 34%; A1V1 activation, % of agonist value (TRPA1V1; Table 1(e), 1 mM): 58.97%
CCC/C=C/COC(=O)CCC [trans-2-Hexenyl butyrate]				activation at 1000 µM (human TRPA1; Table 1(d)): 48.9%; A1V1 activation, % of agonist value (TRPA1V1; Table 1(d), 1 mM): 20%
CCCCC/C=C/C=O [trans-2-Octanal]		115%	112%	
Bisabolene				A1 activation, % of agonist value (human TRPA1; Table 1(d)): 77%; A1V1 activation, % of agonist value (TRPA1V1; Table 1(d), 1 mM): 46.2%
L-Ascorbic acid, calcium salt (2:1)		93.20%	88.00%	
Myrtenal		111.3%	95.8%	
